Assay results taken from paper PMC7501296, “Rapid and direct control of target protein levels with VHL-recruiting dTAG molecules” (Nature Communications, 2020).
Values joined by “and” are separate entries in the source; they are usually repeats but may differ in a detail not shown here. Identical values can stand only once.

Assays:
Format in all cases: cell-based
FKBP12^WT-Nluc = biological target: T1, FKBP12^WT-Nluc (Homo sapiens, UniProt P62942); experiment: FKBP12WT-Nluc dual luciferase assay (293FT); conditions: 293FT FKBP12WT-Nluc, 24 h
T1 construct: expressed in transfected cells; host or cells: 293FT
T1 sequence (P62942 2-108 limits assumed): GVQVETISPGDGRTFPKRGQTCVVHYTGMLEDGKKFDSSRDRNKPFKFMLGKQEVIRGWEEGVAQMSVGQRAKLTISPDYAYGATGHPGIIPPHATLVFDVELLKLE
Description: (§1) Dual luciferase assays were performed using 293FT FKBP12^WT-Nluc and FKBP12^F36V-Nluc cells. In brief, cells were plated at 2000 cells per well in 20 µL of appropriate media in 384-well white culture plates (Corning), allowed to adhere overnight, and 100 nL of compounds were added using a Janus Workstation pin tool (PerkinElmer) for 24 h at 37 °C. To evaluate Fluc signal, plates were brought to room temperature, 20 µL of Dual-Glo Reagent (Promega) was added for 10 min and luminescence was measured on an Envision 2104 plate reader (PerkinElmer). Subsequently, 20 µL of Dual-Glo Stop & Glo Reagent (Promega) was added for 10 min and luminescence was again measured to capture Nluc signal. DMSO-normalized ratios of Nluc/Fluc signal was analyzed and plotted using GraphPad PRISM v8[6].

FKBP12^F36V-Nluc = biological target: T2, FKBP12^F36V-Nluc (Homo sapiens, UniProt P62942, F37V); experiment: FKBP12F36V-Nluc dual luciferase assay (293FT); conditions: 293FT FKBP12F36V-Nluc, 24 h
T2 construct: expressed in transfected cells; host or cells: 293FT
T2 sequence (P62942 2-108 F37V limits assumed): as the sequence (P62942 2-108 limits assumed) above, with F36V counted along it
Description: as §1

[1] = test system: PATU-8902 LACZ-FKBP12^F36V clone; experiment: Antiproliferation, PATU-8902 LACZ-FKBP12F36V clone, 3D-spheroid (CellTiter-Glo)
Description: (§2) Cell viability was assayed in 2D-adherent or ultra-low adherent 3D-spheroids using CellTiter-Glo (Promega)[6],[15]. Luminescence was measured on an Envision 2104 plate reader (PerkinElmer) and Fluostar Omega Reader (BMG Labtech) and data was analyzed using GraphPad PRISM v8. Synergy assessments were performed using CellTiter-Glo (Promega) with the following modifications to the protocol described in the ref. [34]. In brief, EWS502 cells were plated at 1000 cells per well in 50 µL of appropriate media in 384-well white culture plates (Corning) allowed to adhere overnight, and 100 nL of compounds were added using a Janus Workstation pin tool (PerkinElmer) for 72 h. Cell viability was measured by addition of 10 µL of CellTiter-glo (Promega), followed by incubation for 15 minutes at room temperature. Luminescence was measured on an Envision 2104 plate reader (PerkinElmer) and data was analyzed using GraphPad PRISM v8.

[2] = test system: PATU-8902 FKBP12^F36V-KRAS^G12V; KRAS^-/- clone; experiment: Antiproliferation, PATU-8902 FKBP12F36V-KRASG12V; KRAS-/- clone, 3D-spheroid (CellTiter-Glo); conditions: FKBP12F36V-KRASG12V, KRAS-/-, 3D-spheroid, replicate values
Description: as §2

[3] = test system: PATU-8902 LACZ-FKBP12^F36V clone; experiment: Antiproliferation, PATU-8902 LACZ-FKBP12F36V clone, 2D-monolayer (CellTiter-Glo)
Description: as §2

[4] = test system: PATU-8902 FKBP12^F36V-KRAS^G12V; KRAS^-/- clone; experiment: Antiproliferation, PATU-8902 FKBP12F36V-KRASG12V; KRAS-/- clone, 2D-monolayer (CellTiter-Glo)
Description: as §2

[5] = log10[compound] (M) -5.30103, single replicates
[6] = log10[compound] (M) -5.80103, single replicates
[7] = log10[compound] (M) -6.30103, single replicates
[8] = log10[compound] (M) -6.80103, single replicates
[9] = log10[compound] (M) -7.30103, single replicates
[10] = log10[compound] (M) -7.80103, single replicates
[11] = log10[compound] (M) -8.30103, single replicates
[12] = log10[compound] (M) -8.80103, single replicates
[13] = log10[compound] (M) -9.30103, single replicates
[14] = log10[compound] (M) -9.80103, single replicates
[15] = log10[compound] (M) -5.69897, replicate values
[16] = log10[compound] (M) -6.19897, replicate values
[17] = log10[compound] (M) -6.69897, replicate values
[18] = log10[compound] (M) -7.19897, replicate values
[19] = log10[compound] (M) -7.69897, replicate values
[20] = log10[compound] (M) -8.19897, replicate values
[21] = log10[compound] (M) -8.69897, replicate values
[22] = log10[compound] (M) -9.19897, replicate values
[23] = log10[compound] (M) -9.69897, replicate values
[24] = log10[compound] (M) -10.199, replicate values

CC[C@H](C(=O)N1CCCC[C@H]1C(=O)O[C@H](CCc1ccc(OC)c(OC)c1)c1ccccc1OCC(=O)NCCCCCCCCNc1ccc2c(c1)C(=O)N(C1CCCNC1=O)C2=O)c1cc(OC)c(OC)c(OC)c1 (stereo partly drawn) [dTAG-47-NEG]
DMSO-normalized ratio of Nluc/Fluc signal (FKBP12^WT-Nluc; [5]): 112.983 and 133.743 and 109.836 and 118.552 | DMSO-normalized ratio of Nluc/Fluc signal (FKBP12^WT-Nluc; [6]): 88.6495 and 108.291 and 97.1172 and 97.9891 | DMSO-normalized ratio of Nluc/Fluc signal (FKBP12^WT-Nluc; [7]): 84.7288 and 98.5773 and 69.8656 and 85.4355 | DMSO-normalized ratio of Nluc/Fluc signal (FKBP12^WT-Nluc; [8]): 111.882 and 117.981 and 82.1602 and 97.6002 | DMSO-normalized ratio of Nluc/Fluc signal (FKBP12^WT-Nluc; [9]): 80.9372 and 116.345 and 96.4274 and 100.006 | DMSO-normalized ratio of Nluc/Fluc signal (FKBP12^WT-Nluc; [10]): 91.8268 and 107.899 and 89.5705 and 101.339 | DMSO-normalized ratio of Nluc/Fluc signal (FKBP12^WT-Nluc; [11]): 96.8786 and 106.696 and 109.119 and 135.476 | DMSO-normalized ratio of Nluc/Fluc signal (FKBP12^WT-Nluc; [12]): 100.791 and 113.508 and 74.3676 and 105.961 | DMSO-normalized ratio of Nluc/Fluc signal (FKBP12^WT-Nluc; [13]): 140.604 and 140.668 and 98.5907 and 115.954 | DMSO-normalized ratio of Nluc/Fluc signal (FKBP12^WT-Nluc; [14]): 87.4488 and 119.502 and 82.5871 and 99.1801 | DMSO-normalized ratio of Nluc/Fluc signal (FKBP12^F36V-Nluc; [5]): 107.204 and 133.65 and 125.111 and 106.713 | DMSO-normalized ratio of Nluc/Fluc signal (FKBP12^F36V-Nluc; [6]): 105.202 and 100.221 and 87.7709 and 98.1806 | DMSO-normalized ratio of Nluc/Fluc signal (FKBP12^F36V-Nluc; [7]): 114.516 and 112.689 and 63.1557 and 96.6176 | DMSO-normalized ratio of Nluc/Fluc signal (FKBP12^F36V-Nluc; [8]): 115.914 and 94.4993 and 79.2868 and 83.2258 | DMSO-normalized ratio of Nluc/Fluc signal (FKBP12^F36V-Nluc; [9]): 95.8358 and 90.9039 and 76.6637 and 114.52 | DMSO-normalized ratio of Nluc/Fluc signal (FKBP12^F36V-Nluc; [10]): 93.9184 and 139.979 and 82.2221 and 91.2143 | DMSO-normalized ratio of Nluc/Fluc signal (FKBP12^F36V-Nluc; [11]): 91.746 and 110.613 and 89.992 and 115.75 | DMSO-normalized ratio of Nluc/Fluc signal (FKBP12^F36V-Nluc; [12]): 108.43 and 84.8167 and 129.223 and 114.161 | DMSO-normalized ratio of Nluc/Fluc signal (FKBP12^F36V-Nluc; [13]): 128.159 and 120.38 and 100.065 and 103.942 | DMSO-normalized ratio of Nluc/Fluc signal (FKBP12^F36V-Nluc; [14]): 95.5174 and 90.4935 and 78.1755 and 112.193 | DMSO-normalized antiproliferation [1, 15]: 97.4751 and 103.304 and 87.3281 and 98.4167 | DMSO-normalized antiproliferation [1, 16]: 115.352 and 92.3949 and 111.46 and 98.7799 | DMSO-normalized antiproliferation [1, 17]: 115.675 and 135.633 and 120.527 and 101.762 | DMSO-normalized antiproliferation [1, 18]: 132.781 and 104.479 and 141.691 and 94.0763 | DMSO-normalized antiproliferation [1, 19]: 113.77 and 136.938 and 126.087 and 111.72 | DMSO-normalized antiproliferation [1, 20]: 141.265 and 116.402 and 127.835 and 120.491 | DMSO-normalized antiproliferation [1, 21]: 117.15 and 123.8 and 115.155 and 128.638 | DMSO-normalized antiproliferation [1, 22]: 109.537 and 110.734 and 119.818 and 124.491 | DMSO-normalized antiproliferation [1, 23]: 101.506 and 115.774 and 112.487 and 105.932 | DMSO-normalized antiproliferation [1, 24]: 91.3412 and 111.541 and 123.365 and 101.901 | DMSO-normalized antiproliferation ([2]; log10[compound] (M) -5.69897): 82.482 and 87.6886 and 103.208 and 99.4884 | DMSO-normalized antiproliferation ([2]; log10[compound] (M) -6.19897): 113.805 and 93.9254 and 98.397 and 96.9436 | DMSO-normalized antiproliferation ([2]; log10[compound] (M) -6.69897): 123.227 and 117.041 and 133.19 and 118.656 | DMSO-normalized antiproliferation ([2]; log10[compound] (M) -7.19897): 81.3571 and 110.96 and 121.028 and 111.088 | DMSO-normalized antiproliferation ([2]; log10[compound] (M) -7.69897): 122.42 and 111.862 and 100.29 and 122.927 | DMSO-normalized antiproliferation ([2]; log10[compound] (M) -8.19897): 142.5 and 118.093 and 120.226 and 127.732 | DMSO-normalized antiproliferation ([2]; log10[compound] (M) -8.69897): 121.028 and 116.139 and 119.196 and 128.785 | DMSO-normalized antiproliferation ([2]; log10[compound] (M) -9.19897): 130.238 and 109.673 and 113.755 and 125.733 | DMSO-normalized antiproliferation ([2]; log10[compound] (M) -9.69897): 131.246 and 139.231 and 145.63 and 98.1297 | DMSO-normalized antiproliferation ([2]; log10[compound] (M) -10.199): 85.3442 and 82.6434 and 122.826 and 96.2419 | DMSO-normalized antiproliferation [3, 15]: 66.1984 and 57.9546 and 80.6556 and 62.9228 | DMSO-normalized antiproliferation [3, 16]: 65.6828 and 85.4625 and 78.6518 and 76.5663 | DMSO-normalized antiproliferation [3, 17]: 102.61 and 78.6871 and 110.55 and 102.23 | DMSO-normalized antiproliferation [3, 18]: 104.837 and 92.9898 and 109.382 and 132.676 | DMSO-normalized antiproliferation [3, 19]: 141.282 and 157.373 and 114.442 and 100.315 | DMSO-normalized antiproliferation [3, 20]: 95.0388 and 126.489 and 147.158 and 156.144 | DMSO-normalized antiproliferation [3, 21]: 96.771 and 104.289 and 112.53 and 88.7912 | DMSO-normalized antiproliferation [3, 22]: 117.441 and 113.828 and 97.736 and 88.8651 | DMSO-normalized antiproliferation [3, 23]: 104.694 and 108.624 and 153.334 and 121.648 | DMSO-normalized antiproliferation [3, 24]: 108.17 and 124.096 and 109.419 and 107.694 | DMSO-normalized antiproliferation [4, 15]: 74.7022 and 73.4799 and 58.8574 and 61.1381 | DMSO-normalized antiproliferation [4, 16]: 87.1466 and 90.577 and 94.4269 and 106.738 | DMSO-normalized antiproliferation [4, 17]: 79.5247 and 86.4598 and 105.965 and 87.3723 | DMSO-normalized antiproliferation [4, 18]: 125.17 and 98.7432 and 116.205 and 122.113 | DMSO-normalized antiproliferation [4, 19]: 90.1708 and 148.45 and 111.91 and 91.8745 | DMSO-normalized antiproliferation [4, 20]: 119.425 and 116.853 and 127.987 and 145.045 | DMSO-normalized antiproliferation [4, 21]: 87.2626 and 88.668 and 110.555 and 114.959 | DMSO-normalized antiproliferation [4, 22]: 135.954 and 152.721 and 117.778 and 94.3712 | DMSO-normalized antiproliferation [4, 23]: 100.893 and 117.34 and 101.502 and 86.7015 | DMSO-normalized antiproliferation [4, 24]: 99.6176 and 90.8045 and 95.2889 and 85.7881
